Columns and labels:
[1] = target: Estrogen receptor beta (Homo sapiens, UniProt Q92731); experiment: Inhibition of human Estrogen receptor beta
[2] = target: T1, Estrogen receptor (Homo sapiens, UniProt P03372); experiment: Inhibition of human Estrogen receptor alpha
T1 sequence (P03372 whole entry): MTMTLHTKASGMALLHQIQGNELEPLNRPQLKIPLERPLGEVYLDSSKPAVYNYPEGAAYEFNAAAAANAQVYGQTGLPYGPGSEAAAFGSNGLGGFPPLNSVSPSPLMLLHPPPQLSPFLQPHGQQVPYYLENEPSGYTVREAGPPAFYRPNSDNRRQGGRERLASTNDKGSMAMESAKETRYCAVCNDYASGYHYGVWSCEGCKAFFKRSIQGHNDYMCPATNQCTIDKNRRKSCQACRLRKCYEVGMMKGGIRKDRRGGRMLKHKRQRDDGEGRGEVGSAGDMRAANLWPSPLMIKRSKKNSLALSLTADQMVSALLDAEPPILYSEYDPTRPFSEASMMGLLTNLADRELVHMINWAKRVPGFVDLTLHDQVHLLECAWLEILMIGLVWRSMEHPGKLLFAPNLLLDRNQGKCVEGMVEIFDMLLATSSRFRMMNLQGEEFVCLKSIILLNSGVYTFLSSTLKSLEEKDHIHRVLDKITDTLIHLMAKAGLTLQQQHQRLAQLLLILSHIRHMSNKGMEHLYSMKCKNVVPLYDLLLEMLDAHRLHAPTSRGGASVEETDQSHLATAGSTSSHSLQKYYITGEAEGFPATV

[3] = target: T2, Androgen receptor (Homo sapiens, UniProt P10275)
T2 sequence (P10275 whole entry): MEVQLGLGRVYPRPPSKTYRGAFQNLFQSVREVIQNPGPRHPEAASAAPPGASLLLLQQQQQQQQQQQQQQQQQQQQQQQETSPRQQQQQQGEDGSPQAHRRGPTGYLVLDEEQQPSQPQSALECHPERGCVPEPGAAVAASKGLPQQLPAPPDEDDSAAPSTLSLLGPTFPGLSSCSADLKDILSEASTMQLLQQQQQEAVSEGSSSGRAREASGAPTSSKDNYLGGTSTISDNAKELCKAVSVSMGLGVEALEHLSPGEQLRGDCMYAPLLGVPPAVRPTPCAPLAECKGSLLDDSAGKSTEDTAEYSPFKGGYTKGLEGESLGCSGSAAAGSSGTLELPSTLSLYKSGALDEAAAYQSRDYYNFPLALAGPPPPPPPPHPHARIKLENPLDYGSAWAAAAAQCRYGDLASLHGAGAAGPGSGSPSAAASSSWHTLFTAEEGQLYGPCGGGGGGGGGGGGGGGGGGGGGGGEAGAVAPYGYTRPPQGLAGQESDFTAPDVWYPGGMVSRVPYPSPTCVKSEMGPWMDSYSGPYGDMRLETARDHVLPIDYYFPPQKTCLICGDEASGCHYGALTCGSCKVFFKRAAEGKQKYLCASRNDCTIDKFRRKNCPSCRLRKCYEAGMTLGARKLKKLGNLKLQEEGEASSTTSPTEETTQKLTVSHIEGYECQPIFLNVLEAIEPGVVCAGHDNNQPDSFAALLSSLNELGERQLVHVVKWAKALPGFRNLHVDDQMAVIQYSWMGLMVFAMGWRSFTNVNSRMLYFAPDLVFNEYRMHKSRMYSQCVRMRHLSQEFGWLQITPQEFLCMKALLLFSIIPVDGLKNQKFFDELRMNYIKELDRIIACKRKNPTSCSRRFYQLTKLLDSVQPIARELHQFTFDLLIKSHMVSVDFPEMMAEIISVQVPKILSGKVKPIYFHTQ
Description: Inhibition of human androgen receptor

[4] = target: T3, Mineralocorticoid receptor (Homo sapiens, UniProt P08235)
T3 sequence (P08235 whole entry): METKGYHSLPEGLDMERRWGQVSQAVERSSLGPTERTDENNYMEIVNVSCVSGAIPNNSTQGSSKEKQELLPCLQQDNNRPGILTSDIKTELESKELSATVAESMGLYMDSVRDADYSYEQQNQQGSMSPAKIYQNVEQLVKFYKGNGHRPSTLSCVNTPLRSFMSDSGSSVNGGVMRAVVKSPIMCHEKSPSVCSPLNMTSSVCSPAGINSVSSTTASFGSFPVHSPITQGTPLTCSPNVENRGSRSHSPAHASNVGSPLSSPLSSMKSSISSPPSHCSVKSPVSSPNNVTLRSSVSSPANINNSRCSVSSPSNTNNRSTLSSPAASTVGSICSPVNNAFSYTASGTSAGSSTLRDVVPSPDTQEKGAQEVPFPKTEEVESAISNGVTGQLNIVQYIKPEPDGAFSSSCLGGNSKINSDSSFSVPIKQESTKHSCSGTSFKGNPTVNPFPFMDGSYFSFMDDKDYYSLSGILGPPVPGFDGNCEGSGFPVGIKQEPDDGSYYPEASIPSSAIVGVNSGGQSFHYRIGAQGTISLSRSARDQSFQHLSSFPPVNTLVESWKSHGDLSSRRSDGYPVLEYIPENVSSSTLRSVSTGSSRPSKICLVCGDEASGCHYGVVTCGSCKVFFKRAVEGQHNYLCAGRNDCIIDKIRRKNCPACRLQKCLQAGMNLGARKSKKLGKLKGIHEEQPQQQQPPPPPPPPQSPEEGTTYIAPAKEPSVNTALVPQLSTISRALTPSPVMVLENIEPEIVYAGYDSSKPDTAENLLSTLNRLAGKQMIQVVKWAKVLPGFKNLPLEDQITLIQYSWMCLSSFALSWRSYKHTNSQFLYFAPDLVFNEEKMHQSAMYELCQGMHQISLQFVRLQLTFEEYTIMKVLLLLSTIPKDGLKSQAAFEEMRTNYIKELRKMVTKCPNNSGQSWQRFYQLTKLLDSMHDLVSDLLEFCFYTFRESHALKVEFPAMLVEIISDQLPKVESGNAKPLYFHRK
Description: Inhibition of human Mineralocorticoid receptor

[5] = Inhibitory activity against rat lymphocytes; set-up: concentration or dose not given beside the values
[6] = target: T4, Thyroid hormone receptor beta (Homo sapiens, UniProt P10828); experiment: Inhibition of human Thyroid hormone receptor beta
T4 sequence (P10828 whole entry): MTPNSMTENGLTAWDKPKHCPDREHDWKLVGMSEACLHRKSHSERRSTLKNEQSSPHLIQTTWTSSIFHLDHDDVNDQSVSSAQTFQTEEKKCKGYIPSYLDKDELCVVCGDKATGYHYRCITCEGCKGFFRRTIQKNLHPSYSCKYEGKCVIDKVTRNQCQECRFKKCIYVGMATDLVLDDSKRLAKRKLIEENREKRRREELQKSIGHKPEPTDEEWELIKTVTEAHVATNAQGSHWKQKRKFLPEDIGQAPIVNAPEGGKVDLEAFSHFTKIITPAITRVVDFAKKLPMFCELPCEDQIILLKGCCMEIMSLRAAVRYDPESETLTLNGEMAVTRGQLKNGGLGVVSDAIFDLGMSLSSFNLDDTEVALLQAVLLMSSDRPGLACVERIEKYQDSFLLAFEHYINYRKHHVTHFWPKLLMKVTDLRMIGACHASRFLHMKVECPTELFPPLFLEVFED

Sequence of Estrogen receptor beta (Q92731 whole entry): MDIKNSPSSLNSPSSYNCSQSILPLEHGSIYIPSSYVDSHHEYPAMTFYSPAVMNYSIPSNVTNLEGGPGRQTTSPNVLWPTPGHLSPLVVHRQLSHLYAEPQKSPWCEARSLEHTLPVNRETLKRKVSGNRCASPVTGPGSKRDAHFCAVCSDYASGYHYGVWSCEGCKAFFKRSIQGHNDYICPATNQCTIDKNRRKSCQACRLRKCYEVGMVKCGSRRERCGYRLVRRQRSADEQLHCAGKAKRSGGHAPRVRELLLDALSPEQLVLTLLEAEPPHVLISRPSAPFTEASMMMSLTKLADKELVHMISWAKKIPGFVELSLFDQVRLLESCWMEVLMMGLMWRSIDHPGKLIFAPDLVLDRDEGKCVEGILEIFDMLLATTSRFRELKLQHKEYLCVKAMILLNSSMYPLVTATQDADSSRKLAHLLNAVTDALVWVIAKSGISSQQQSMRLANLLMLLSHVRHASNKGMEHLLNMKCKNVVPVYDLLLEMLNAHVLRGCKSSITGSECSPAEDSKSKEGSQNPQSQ

| SMILES | Ki [1] [nM] | Ki [2] [nM] | Ki [3] [nM] | Ki [4] [nM] | Ki [6] [nM] | Inhibition [5] [%] |
| --- | --- | --- | --- | --- | --- | --- |
| C#C[C@]1(O)CC[C@H]2[C@@H]3CCC4=CC(=O)CCC4=C3[C@@H](c3ccc(N(C)CCCS(=O)(=O)N(C)C4CC[C@@]5(C)[C@@H](C4)C[C@@H](O)[C@@H]4[C@@H]5C[C@H](O)[C@]5(C)[C@@H]([C@H](C)CCC(=O)O)CC[C@@H]45)cc3)C[C@@]21C (stereo not given in full) | 39 | 19 | 17 | 300 |  | 9 |
| C#C[C@]1(O)CC[C@H]2[C@@H]3CCC4=CC(=O)CCC4=C3[C@@H](c3ccc(N(C)C(=O)CC[C@H](NC(=O)CC[C@@H](C)[C@H]4CC[C@H]5[C@@H]6[C@H](O)C[C@@H]7C[C@H](O)CC[C@]7(C)[C@H]6C[C@H](O)[C@]45C)C(=O)O)cc3)C[C@@]21C | 240 | 72 | 34 | 590 | > 2250 |  |
| C#C[C@]1(O)CC[C@H]2[C@@H]3CCC4=CC(=O)CCC4=C3[C@@H](c3ccc(N(C)C(=O)CNC(=O)OC4CC[C@@]5(C)[C@@H](C4)C[C@@H](O)[C@@H]4[C@@H]5C[C@H](O)[C@]5(C)[C@@H]([C@H](C)CCC(=O)O)CC[C@@H]45)cc3)C[C@@]21C (stereo not given in full) | 160 | 11 | 21 | 310 | > 2250 |  |
| C#C[C@]1(O)CC[C@H]2[C@@H]3CCC4=CC(=O)CCC4=C3[C@@H](c3ccc(N(C)CCNC(=O)N(C)C4CC[C@@]5(C)[C@@H](C4)C[C@@H](O)[C@@H]4[C@@H]5C[C@H](O)[C@]5(C)[C@@H]([C@H](C)CCC(=O)O)CC[C@@H]45)cc3)C[C@@]21C (stereo not given in full) | 190 | 140 | 16 | 850 | > 2250 |  |
| C#C[C@]1(O)CC[C@H]2[C@@H]3CCC4=CC(=O)CCC4=C3[C@@H](c3ccc(N(C)C(=O)CNC(=O)O[C@@H]4C[C@@H]5CC(O)CC[C@]5(C)[C@H]5C[C@H](O)[C@]6(C)[C@@H]([C@H](C)CCC(=O)O)CC[C@H]6[C@H]45)cc3)C[C@@]21C (stereo not given in full) | > 750 | 94 | 37 | > 1000 | > 2250 |  |
| C#C[C@]1(O)CC[C@H]2[C@@H]3CCC4=CC(=O)CCC4=C3[C@@H](c3ccc(N(C)CCC[C@H]4[C@H](O)CC[C@@]5(C)[C@@H]4C[C@@H](O)[C@@H]4[C@@H]5C[C@H](O)[C@]5(C)[C@@H]([C@H](C)CCC(=O)O)CC[C@@H]45)cc3)C[C@@]21C | 48 | 46 | 53 | > 1000 |  |  |
| C#C[C@]1(O)CC[C@H]2[C@@H]3CCC4=CC(=O)CCC4=C3[C@@H](c3ccc(N(C)CCOC4CC[C@@]5(C)[C@@H](C4)C[C@@H](O)[C@@H]4[C@@H]5C[C@H](O)[C@]5(C)[C@@H]([C@H](C)CCC(=O)O)CC[C@@H]45)cc3)C[C@@]21C (stereo in doubt; form 1) | 89 | 11 | 8.9 | > 1000 | > 2250 | -14 |
| C#C[C@]1(O)CC[C@H]2[C@@H]3CCC4=CC(=O)CCC4=C3[C@@H](c3ccc(N(C)CCOC4CC[C@@]5(C)[C@@H](C4)C[C@@H](O)[C@@H]4[C@@H]5C[C@H](O)[C@]5(C)[C@@H]([C@H](C)CCC(=O)NCC(=O)O)CC[C@@H]45)cc3)C[C@@]21C (stereo not given in full) |  |  | 34 | 510 | > 2250 |  |

More lines, in order of falling Ki [3], values ahead:

| Ki [1] [nM] | Ki [2] [nM] | Ki [3] [nM] | Ki [4] [nM] | Ki [6] [nM] | SMILES | Inhibition [5] [%] |
| --- | --- | --- | --- | --- | --- | --- |
| 570 | 34 | 8.9 | > 1000 | > 2250 | C#C[C@]1(O)CC[C@H]2[C@@H]3CCC4=CC(=O)CCC4=C3[C@@H](c3ccc(N(C)C(C)=O)cc3)C[C@@]21C |  |
| 30 | 10 | 8.9 | 140 | > 2250 | C#C[C@]1(O)CC[C@H]2[C@@H]3CCC4=CC(=O)CCC4=C3[C@@H](c3ccc(N(C)CCOC4CC[C@@]5(C)[C@@H](C4)C[C@@H](O)[C@@H]4[C@@H]5C[C@H](O)[C@]5(C)[C@@H]([C@H](C)CCC(=O)NCCS(=O)(=O)O)CC[C@@H]45)cc3)C[C@@]21C (stereo not given in full) |  |
| 13 | 6.2 | 7.4 | 190 | > 2250 | C#C[C@]1(O)CC[C@H]2[C@@H]3CCC4=CC(=O)CCC4=C3[C@@H](c3ccc(N(C)CCCC(=O)N(C)C4CC[C@@]5(C)[C@@H](C4)C[C@@H](O)[C@@H]4[C@@H]5C[C@H](O)[C@]5(C)[C@@H]([C@H](C)CCC(=O)O)CC[C@@H]45)cc3)C[C@@]21C (stereo not given in full) | 4 |
| > 750 | > 200 | 6.2 | > 1000 | > 2250 | C#C[C@]1(O)CC[C@H]2[C@@H]3CCC4=CC(=O)CCC4=C3[C@@H](c3ccc(N(C)CCNC(=O)OC4CC[C@@]5(C)[C@@H](C4)C[C@@H](O)[C@@H]4[C@@H]5C[C@H](O)[C@]5(C)[C@@H]([C@H](C)CCC(=O)O)CC[C@@H]45)cc3)C[C@@]21C (stereo not given in full) |  |
| 51 | 14 | 3.3 | 150 | > 2250 | C#C[C@]1(O)CC[C@H]2[C@@H]3CCC4=CC(=O)CCC4=C3[C@@H](c3ccc(N(C)CCOCCO[C@H]4CC[C@@]5(C)[C@@H](C4)C[C@@H](O)[C@@H]4[C@@H]5C[C@H](O)[C@]5(C)[C@@H]([C@H](C)CCC(=O)O)CC[C@@H]45)cc3)C[C@@]21C | 43 |
